# Like-named read-outs stand apart in the source and are kept apart here.
# Tests used:
# human plasma kallikrein = human plasma kallikrein (Homo sapiens (Human), UniProt P03952); experiment: Kallikrein inhibition assay (FLINT) utilizing a quenched AMC peptide substrate; assay type: biochemical; settings: 30 min preincubation, kinetic reads over 30 min, Z-Gly-Pro-Arg-AMC substrate 50 μM; read-out: Kallikrein Kin Inh IC50
# Summary of the method: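 Fluorogenic Z-Gly-Pro-Arg-AMC cleavage (50 μM substrate, 2 nM kallikrein, Tris pH 7.5, CaCl2, BSA, CHAPS, 2% DMSO) read kinetically at 340/440 nm for 30 min after 30-min compound pre-incubation. Compounds in 11-point 3-fold series from 1 μM; percent inhibition fitted to four-parameter equation for IC50.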
# Factor XIa = Factor XIa (Homo sapiens (Human), UniProt P03951); experiment: Factor XIa inhibition assay (FLINT) utilizing a fluorophore-quencher pair peptide substrate; assay type: biochemical; settings: 30 min preincubation, kinetic reads over 30 min, read-out: FXIa Kin Inh IC50
# Summary of the method: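 FXIa ([…]) preincubated 30 min with compound (11-point 3-fold dilution, top 100 nM, 2% DMSO), then 15 μM quenched FXI Arg146-based peptide added; Tris pH 7.5, CaCl2, BSA, CHAPS. Fluorescence 485/520 nm read kinetically every 5 min over 30 min at RT; IC50 by 4-parameter fit.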
# [1] = 5Fam-[…]-K5Tamra substrate 15 μM
# [2] = 5Fam-KLTRAETV-K5Tamra substrate 15 μM
# Sequence of Factor XIa (P03951 388-625): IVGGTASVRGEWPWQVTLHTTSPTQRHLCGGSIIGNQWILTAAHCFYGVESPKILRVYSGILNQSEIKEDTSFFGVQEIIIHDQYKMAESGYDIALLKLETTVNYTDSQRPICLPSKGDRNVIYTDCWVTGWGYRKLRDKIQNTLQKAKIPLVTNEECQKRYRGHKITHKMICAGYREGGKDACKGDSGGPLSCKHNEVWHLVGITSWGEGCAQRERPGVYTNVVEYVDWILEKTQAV
# Sequence of Factor XIa (P03951 19-387 partner): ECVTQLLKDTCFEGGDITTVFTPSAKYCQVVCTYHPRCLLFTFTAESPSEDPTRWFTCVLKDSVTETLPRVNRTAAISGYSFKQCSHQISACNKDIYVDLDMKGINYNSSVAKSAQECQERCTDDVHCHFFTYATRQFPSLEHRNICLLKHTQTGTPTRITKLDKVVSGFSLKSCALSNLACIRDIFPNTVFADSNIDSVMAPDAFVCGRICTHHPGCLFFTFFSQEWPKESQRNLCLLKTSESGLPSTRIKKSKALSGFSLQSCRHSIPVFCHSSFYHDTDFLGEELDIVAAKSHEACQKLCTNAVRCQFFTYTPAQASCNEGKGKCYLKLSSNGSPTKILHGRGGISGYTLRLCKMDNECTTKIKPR
# Sequence of human plasma kallikrein (P03952 391-638): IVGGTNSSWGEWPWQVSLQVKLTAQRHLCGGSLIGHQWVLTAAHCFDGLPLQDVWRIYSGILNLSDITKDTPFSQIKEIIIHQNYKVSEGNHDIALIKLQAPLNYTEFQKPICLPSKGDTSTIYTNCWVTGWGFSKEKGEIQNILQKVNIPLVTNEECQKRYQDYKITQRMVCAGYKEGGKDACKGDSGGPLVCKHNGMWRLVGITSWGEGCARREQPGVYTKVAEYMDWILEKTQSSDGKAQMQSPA
# Sequence of human plasma kallikrein (P03952 20-390 partner): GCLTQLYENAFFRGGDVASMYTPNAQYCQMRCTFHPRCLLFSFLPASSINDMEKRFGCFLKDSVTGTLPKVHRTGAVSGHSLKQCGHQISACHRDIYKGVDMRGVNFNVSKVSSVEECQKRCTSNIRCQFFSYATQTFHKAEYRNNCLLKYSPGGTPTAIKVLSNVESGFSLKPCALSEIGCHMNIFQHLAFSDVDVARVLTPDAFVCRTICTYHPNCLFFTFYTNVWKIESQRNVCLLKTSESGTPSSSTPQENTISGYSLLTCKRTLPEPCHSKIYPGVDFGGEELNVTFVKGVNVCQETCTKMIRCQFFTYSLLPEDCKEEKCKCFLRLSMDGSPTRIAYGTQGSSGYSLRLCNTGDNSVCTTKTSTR
Compound,IC50 (human plasma kallikrein),IC50 (Factor XIa; [1]),IC50 (Factor XIa; [2])
"O=C1C=C(c2c(-n3cnnn3)ccc(Cl)c2F)C[C@H]2CC[C@H](c3ncc(-c4c[nH]c5ccccc45)[nH]3)N12 (relative stereo) [Example 137, (3R*,8aR)-3-(5-(1H-indol-3-yl)-1H-imidazol-2-yl)-7-(3-chloro-2-fluoro-6-(1H-tetrazol-1-yl)phenyl)-2,3,8,8a-tetrahydroindolizin-5(1H)-one]",7.7 nM,4.6 nM,–
"O=C1C=C(c2c(-n3cnnn3)ccc(Cl)c2F)CC2CC[C@@H](c3nc(-c4ccnc(OC(F)F)c4)c[nH]3)N12 (stereo partly drawn) [Example 10, (S)-7-[3-Chloro-2-fluoro-6-(tetrazol-1-yl)phenyl]-3-[4-[2-(difluoromethoxy)-4-pyridyl]-1H-imidazol-2-yl]-2,3,8,8a-tetrahydro-1H-indolizin-5-one]",26.8 nM,–,36.1 nM
"Nc1ccccc1-c1cnc([C@@H]2CC[C@@H]3CC(c4c(-n5cnnn5)ccc(Cl)c4F)=CC(=O)N32)[nH]1 (relative stereo) [Example 310, (3S,8aR*)-3-(4-(2-Aminophenyl)-1H-imidazol-2-yl)-7-(3-chloro-2-fluoro-6-(1H-tetrazol-1-yl)phenyl)-2,3,8,8a-tetrahydroindolizin-5(1H)-one]",> 100 nM,33.6 nM,–
"[2H]c1c(N)nc(F)c(-c2cnc([C@@H]3CC[C@@H]4CC(c5c(-n6cnnn6)ccc(Cl)c5F)=CC(=O)N43)[nH]2)c1[2H] [Example 151, (3S,8aR)-3-[5-(6-amino-4,5-dideuterio-2-fluoro-3-pyridyl)-1H-imidazol-2-yl]-7-[3-chloro-2-fluoro-6-(tetrazol-1-yl)phenyl]-2,3,8,8a-tetrahydro-1H-indolizin-5-one]",8.9 nM,–,0.6 nM
"CC(F)(F)C(=O)Nc1cnccc1-c1c[nH]c([C@@H]2CCC3CC(c4c(-n5cnnn5)ccc(Cl)c4F)=CC(=O)N32)n1 (stereo partly drawn) [Example 246, N-[4-[2-[(3S)-7-[3-Chloro-2-fluoro-6-(tetrazol-1-yl)phenyl]-5-oxo-2,3,8,8a-tetrahydro-1H-indolizin-3-yl]-1H-imidazol-4-yl]-3-pyridyl]-2,2-difluoro-propanamide]",141 nM,–,1.8 nM
"O=C1C=C(c2cc(Cl)ccc2-n2cc(C(F)(F)F)nn2)C[C@H]2CC[C@@H](c3ncc(-c4ccnc(CO)c4F)[nH]3)N12 (relative stereo) [Example 64, (3S,8aR*)-7-(5-chloro-2-(4-(trifluoromethyl)-1H-1,2,3-triazol-1-yl)phenyl)-3-(5-(3-fluoro-2-(hydroxymethyl)pyridin-4-yl)-1H-imidazol-2-yl)-2 3,8,8a-tetrahydroindolizin-1H-one]",156 nM,11.5 nM,–
"[2H]c1nc([C@@H]2CC[C@@H]3CC(c4c(-n5cnnn5)ccc(Cl)c4F)=CC(=O)N32)[nH]c1-c1ccnc(C([2H])([2H])O)c1F [Example 113, (3S,8aR)-7-[3-Chloro-2-fluoro-6-(tetrazol-1-yl)phenyl]-3-[4-deuterio-5-[2-[dideuterio(hydroxy)methyl]-3-fluoro-4-pyridyl]-1H-imidazol-2-yl]-2,3,8,8a-tetrahydro-1H-indolizin-5-one]",27.3 nM,–,3.2 nM
"C[C@H](O)c1nccc(-c2cnc([C@@H]3CC[C@@H]4CC(c5c(-n6cnnn6)ccc(Cl)c5F)=CC(=O)N43)[nH]2)c1F [Example 186, (3S,8aR)-7-(3-chloro-2-fluoro-6-(1H-tetrazol-1-yl)phenyl)-3-(5-(3-fluoro-2-((S)-1-hydroxyethyl)pyridin-4-yl)-1H-imidazol-2-yl)-2,3,8,8a-tetrahydroindolizin-5(1H)-one]",35.1 nM,–,4.6 nM
"O=C1C=C(c2c(C(F)F)ccc(Cl)c2F)C[C@H]2CC[C@@H](c3ncc(-c4ccnc(CO)c4F)[nH]3)N12 [Example 26, (3S,8aR)-7-(3-Chloro-6-(difluoromethyl)-2-fluorophenyl)-3-(5-(3-fluoro-2-(hydroxymethyl)pyridin-4-yl)-1H-imidazol-2-yl)-2,3,8,8a-tetrahydroindolizin-5(1H)-one]",270 nM,> 100 nM,–
"NC(=O)c1ccc(-c2nc([C@@H]3CC[C@@H]4CC(c5c(-n6cc(C(F)(F)F)nn6)ccc(Cl)c5F)=CC(=O)N43)[nH]c2Cl)s1 [Example 203, 5-(5-Chloro-2-((3S,8aR)-7-(3-chloro-2-fluoro-6-(4-(trifluoromethyl)-1H-1,2,3-triazol-1-yl)phenyl)-5-oxo-1,2,3,5,8,8a-hexahydroindolizin-3-yl)-1H-imidazol-4-yl)thiophene-2-carboxamide]",2.5 nM,–,0.9 nM
"O=C1OCCN1c1ccc(-c2cnc([C@@H]3CCC4CC(c5c(-n6cnnn6)ccc(Cl)c5F)=CC(=O)N43)[nH]2)cc1 (stereo partly drawn) [Example 318, 3-(4(2-((3S)-7-(3-Chloro-2-fluoro-6-(1H-tetrazol-1-yl)phenyl)-5-oxo-1,2,3,5,8,8a-hexahydroindolizin-3-yl)-1H-imidazol-5-yl)phenyl)oxazolidin-2-one]",71.5 nM,–,54.1 nM
"O=C1C=C(c2c(-n3cnnn3)ccc(Cl)c2F)C[C@@H]2CC[C@@H](c3ncc(-c4ccnc([C@H](O)C(F)(F)F)c4F)[nH]3)N12 (single isomer, unassigned) [Example 170]",31.8 nM,–,17.9 nM
"O=C1C=C(c2c(-n3cnnn3)ccc(Cl)c2F)C[C@H]2CC[C@@H](c3ncc(-c4ccc5cc[nH]c5c4F)[nH]3)N12 [Example 384, (3S,8aR)-7-(3-chloro-2-fluoro-6-(1H-tetrazol-1-yl)phenyl)-3-(5-(7-fluoro-1H-indol-6-yl)-1H-imidazol-2-yl)-2,3,8,8a-tetrahydroindolizin-5(1H)-one]",6.6 nM,–,1.7 nM
"Cc1nc([C@@H]2CC[C@@H]3CC(c4c(-n5cnnn5)ccc(Cl)c4F)=CC(=O)N32)[nH]c1-c1ccnc(CO)c1F (single isomer, unassigned) [Example 35]",245 nM,60.1 nM,–
"COC(=O)Nc1ccc(-c2cnc([C@@H]3CCC4CC(c5c(-n6cnnn6)ccc(Cl)c5F)=CC(=O)N43)[nH]2)nc1 (stereo partly drawn) [Example 326, Methyl (6-(2-((3S)-7-(3-Chloro-2-fluoro-6-(1H-tetrazol-1-yl)phenyl)-5-oxo-1,2,3,5,8,8a-hexahydroindolizin-3-yl)-1H-imidazol-5-yl)pyridin-3-yl)carbamate]",12.4 nM,–,1 nM
"NC(=O)c1ccc(-c2cnc([C@@H]3CC[C@@H]4CC(c5c(-n6cc(Cl)nn6)ccc(Cl)c5F)=CC(=O)N43)[nH]2)s1 [Example 207, 5-(2-((3S,8aR)-7-(3-Chloro-6-(4-chloro-1H-1,2,3-triazol-1-yl)-2-fluorophenyl)-5-oxo-1,2,3,5,8,8a-hexahydroindolizin-3-yl)-1H-imidazol-5-yl)thiophene-2-carboxamide]",7.7 nM,–,2.5 nM
"O=C1C=C(c2c(-n3cnnn3)ccc(Cl)c2F)C[C@H]2CC[C@@H](c3ncc(-c4ccnc(CO)c4F)[nH]3)N12 [Example 222, (3S,8aR)-7-(3-Chloro-2-fluoro-6-(1H-tetrazol-1-yl)phenyl)-3-(5-(3-fluoro-2-(hydroxymethyl)pyridin-4-yl)-1H-imidazol-2-yl)-2,3,8,8a-tetrahydroindolizin-5(1H)-one]",12.6 nM,–,1.8 nM
"COC(=O)Nc1ccc(-c2cnc([C@@H]3CCC4CC(c5c(OCC(F)(F)F)ccc(Cl)c5F)=CC(=O)N43)[nH]2)cc1 (stereo partly drawn) [Example 324, Methyl (4-(2-((3S)-7-(3-Chloro-2-fluoro-6-(2,2,2-trifluoroethoxy)phenyl)-5-oxo-1,2,3,5,8,8a-hexahydroindolizin-3-yl)-1H-imidazol-5-yl)phenyl)carbamate]",95 nM,–,14.3 nM
"O=C1Nc2ccc(-c3cnc([C@@H]4CCC5CC(c6c(-n7cnnn7)ccc(Cl)c6F)=CC(=O)N54)[nH]3)cc2CO1 (stereo partly drawn) [Example 297, 6-(2-((3S)-7-(3-Chloro-2-fluoro-6-(1H-tetrazol-1-yl)phenyl)-5-oxo-1,2,3,5,8,8a-hexahydroindolizin-3-yl)-1H-imidazol-5-yl)-1H-benzo[d][1,3]oxazin-2(4H)-one]",1 nM,–,0.3 nM
"C[C@@H](O)c1nccc(-c2cnc([C@@H]3CC[C@@H]4CC(c5c(-n6cnnn6)ccc(Cl)c5F)=CC(=O)N43)[nH]2)c1F [Example 185, (3S,8aR)-7-(3-chloro-2-fluoro-6-(1H-tetrazol-1-yl)phenyl)-3-(5-(3-fluoro-2-((R)-1-hydroxyethyl)pyridin-4-yl)-1H-imidazol-2-yl)-2,3,8,8a-tetrahydroindolizin-5(1H)-one]",33.9 nM,–,6.5 nM
"Cc1nc2ccc(-c3cnc([C@@H]4CC[C@@H]5CC(c6c(-n7cnnn7)ccc(Cl)c6F)=CC(=O)N54)[nH]3)cc2[nH]1 [Example 30, (3S,8aR)-7-(3-chloro-2-fluoro-6-(1H-tetrazol-1-yl)phenyl)-3-(5-(2-methyl-1H-benzo[d]imidazol-6-yl)-1H-imidazol-2-yl)-2,3,8,8a-tetrahydroindolizin-5(1H)-one]",4.4 nM,–,2.1 nM
"Nc1ccc(-c2c[nH]c([C@@H]3CCC4CC(c5c(-c6cnc[nH]6)ccc(Cl)c5F)=CC(=O)N43)n2)c(F)n1 (stereo partly drawn) [Example 364, (3S)-3-(4-(6-Amino-2-fluoropyridin-3-yl)-1H-imidazol-2-yl)-7-(3-chloro-2-fluoro-6-(1H-imidazol-5-yl)phenyl)-2,3,8,8a-tetrahydroindolizin-5(1H)-one]",610 nM,–,87 nM
